{"source": "patent US12303845B2", "about": "“Method for crystallization of active pharmaceutical ingredients” (Nanoform Finland Oyj, priority 2023, dated 2025)", "key": {"[1]": {"experiment": "Stability tests of solid material (SEM, XRD, HPLC)", "assay_type": "physicochemical", "settings": "materials prepared according to the disclosure; up to T30; crystallinity confirmed by XRD", "protocol": "Solid material was weighted in separate vials (approx. 150 mg of material in each) and transferred to stability chambers. Three conditions were applied: ambient conditions (material in closed vial at RT), 25° C./65% RH and 40° C./75% RH. Material was analyzed at T0 as freshly prepared, T7 ([…]), T14 ([…]) and T30 (30 d) after the initiation of stability studies. SEM, XRD and dissolution/permeability studies were used to evaluate the crystallinity, particle size/morphology and performance of the material."}, "[2]": {"experiment": "Permeability measurements (μFlux)", "assay_type": "in vitro ADME", "settings": "composition of the disclosure vs bulk ezetimibe, PAMPA membrane", "protocol": "A μFlux instrument connected to the Rainbow instrument (Pion Inc UK Ltd, Forest Row, UK) was used to determine the passive permeability of API from different formulations. The suspensions were loaded to the donor chamber containing 10 mL of SGF (0.025 M HCl pH 1.6) and incubated for 15 min. Thereafter, the content of the donor chamber was converted to FaSSIF medium pH 6.5 by addition of 10 mL of FaSSIF concentrate media and stirring rate of 150 rpm. The receiver compartment contained 20 mL of PION acceptor buffer pH 7.4 with stirring rate of 150 rpm. The permeability was assessed across a gastrointestinal PAMPA membrane (Pion Inc UK Ltd, Forest Row, UK). The suspensions were loaded either at either 40 μg/mL for Ezetimibe or 30 μg/mL for Apalutamide using suspensions prepared at concentration of 5 mg/mL in 1 wt.-% PVPVA suspension vehicle. The temperature was set to 37° C. throughout the measurement. Incubation time was about 24 h. UV-Vis spectra were recorded at 30 s intervals at a wavelength of 293-320 nm using the Pion Rainbow Dynamic with either 10 mm tips for Ezetimibe or 5 mm tips for Apalutamide. API concentrations were calculated using second derivative to avoid interference of undissolved floating particles based on a standard curve (stock solution 5 mg/mL in ethanol). […]"}, "[3]": {"experiment": "Dissolution studies (Pion Rainbow, FaSSIF / SGF-FaSSIF)", "assay_type": "physicochemical", "settings": "composition of the disclosure vs bulk ezetimibe; powders resuspended in aq. 1% PVPVA; FaSSIF and SGF-FaSSIF", "protocol": "The dissolution properties were measured with a Pion Rainbow R2D instrument (Pion Inc UK Ltd, Forest Row, UK). The suspensions were prepared at concentration of 5 mg/mL in 1% PVPVA suspension vehicle loaded at 40 μg/mL (ezetimibe) or 30 μg/ml (apalutamide). Fasted simulated intestinal fluid (FaSSIF) media pH 6.5 was used for dissolution studies of Ezetimibe. Dissolution studies for Apalutamide was done in biphasic mode starting in Simulated gastric media (SGF) (0.025 M HCl pH 1.6) for 15 min. Thereafter, the content of the SGF was converted to FaSSIF medium pH 6.5 by addition of 10 mL of FaSSIF concentrate media. The temperature was set to 37° C. and stirring rate to 150 rpm. API concentrations were continuously monitored with a fiber optical UV-Vis probes path length. UV-Vis spectra were collected in 30-sec intervals using the Pion Rainbow Dynamic with either 10 mm tips for Ezetimibe or 5 mm tips for Apalutamide. The API concentration was calculated based on a standard curve using 2nd derivative data transformation (stock solution 5 mg/mL in ethanol of respective API) at a range of 293-320 nm wavelength for both Ezetimibe and Apalutamide)."}, "[4]": {"experiment": "Crystallization of amorphous nanosized API in aqueous polymer solution, polymorph/crystallinity by XRD", "assay_type": "physicochemical", "set-up": "key to Polymorph: bulk = same as the API before conversion to amorphous nanoparticles", "protocol": "XRPD measurements were carried out using the Malvern PANalytical Empyrean X-ray diffractometer equipped with a Cu Kα (1.54 Å) source, MultiCore optics and a solid-state PIXcel3D detector. By using Kapton tape the samples were attached onto aluminum or polycrystalline silicon sample holders. Dried slurries were measured without further sample preparation under Kapton tape and suspensions were filtered, dried, and filters were attached with double sided tape. The samples were measured in the reflection geometry in a spinning measurement stage. The measurement range was 5-40 (°2θ). The step size and time per step values were varied depending on the counts per second obtained.\nDetermination of crystallization of API nanoparticles was evaluated via kinetic study of suspension. Accordingly, XRD measurement was done for suspension in different time points.\nAmorphous API nanoparticles (budesonide, ezetimibe, ceritinib, and apalutamide) were added as dry powders to aqueous polymer solutions. The mixtures were either • (i) mixed with a magnetic stirrer and ultrasonicated until API was completely surrounded by water (wetted). The stirring was continued for 16-24 h at ambient temperature or • (ii) blended with a metal spatula and allowed to stay at room temperature for 18-24 h.\nThe suspensions formed were analyzed after 18-24 h. SEM and XRD samples were prepared as described above."}}, "data": [{"smiles": "O=C1[C@H](CC[C@H](O)c2ccc(F)cc2)[C@@H](c2ccc(O)cc2)N1c1ccc(F)cc1", "note": "[Eze, ezetimibe]", "values": [{"measurement": "Stability of nanocrystalline material over the stability study", "setting": "[1]", "result": "stable over the whole stability study"}, {"measurement": "permeability versus bulk API", "setting": "[2]", "result": "significantly better"}, {"measurement": "dissolution versus bulk material", "setting": "[3]", "result": "dissolves significantly faster"}, {"measurement": "Polymorph", "setting": "[4]; HPMC 1 wt.-%, SLS 0.2 wt.-%, mAPI 25 mg/g", "result": "bulk"}, {"measurement": "Polymorph", "setting": "[4]; HPMC 1 wt.-%, no SLS, mAPI 25 mg/g", "result": "hydrate"}, {"measurement": "Polymorph", "setting": "[4]; HPMC 2.5 wt.-%, SLS 0.2 wt.-%, mAPI 25 mg/g", "result": "amorphous"}, {"measurement": "Polymorph", "setting": "[4]; HPMC 2.5 wt.-%, no SLS, mAPI 25 mg/g", "result": "hydrate"}, {"measurement": "Polymorph", "setting": "[4]; HPMC 5 wt.-%, SLS 0.2 wt.-%, mAPI 25 mg/g", "result": "amorphous"}, {"measurement": "Polymorph", "setting": "[4]; HPMC 5 wt.-%, no SLS, mAPI 25 mg/g", "result": "hydrate"}, {"measurement": "Polymorph", "setting": "[4]; PVP K30 1 wt.-%, no SLS, mAPI 25 mg/g", "result": "bulk"}, {"measurement": "Polymorph", "setting": "[4]; PVP K30 2.5 wt.-%, no SLS, mAPI 25 mg/g", "result": "bulk"}, {"measurement": "Polymorph", "setting": "[4]; PVP K30 5 wt.-%, no SLS, mAPI 25 mg/g", "result": "bulk"}, {"measurement": "Polymorph", "setting": "[4]; PVPVA 1 wt.-%, SLS 0.2 wt.-%, mAPI 25 mg/g", "result": "bulk"}, {"measurement": "Polymorph", "setting": "[4]; PVPVA 1 wt.-%, no SLS, mAPI 25 mg/g polymer solution", "result": "bulk"}, {"measurement": "Polymorph", "setting": "[4]; PVPVA 2.5 wt.-%, SLS 0.2 wt.-%, mAPI 25 mg/g", "result": "bulk"}, {"measurement": "Polymorph", "setting": "[4]; PVPVA 2.5 wt.-%, no SLS, mAPI 25 mg/g", "result": "bulk"}, {"measurement": "Polymorph", "setting": "[4]; PVPVA 5 wt.-%, SLS 0.2 wt.-%, mAPI 25 mg/g", "result": "hydrate"}, {"measurement": "Polymorph", "setting": "[4]; PVPVA 5 wt.-%, no SLS, mAPI 25 mg/g", "result": "bulk"}, {"measurement": "Polymorph", "setting": "[4]; PVPVA 15 wt.-%, no SLS, mAPI 150 mg/g", "result": "hydrate"}, {"measurement": "Polymorph", "setting": "[4]; PVPVA 15 wt.-%, no SLS, mAPI 300 mg/g", "result": "hydrate"}, {"measurement": "Polymorph", "setting": "[4]; PVPVA 20 wt.-%, no SLS, mAPI 100 mg/g", "result": "hydrate"}, {"measurement": "Polymorph", "setting": "[4]; PVPVA 20 wt.-%, no SLS, mAPI 200 mg/g", "result": "hydrate"}, {"measurement": "Polymorph", "setting": "[4]; PVPVA 20 wt.-%, no SLS, mAPI 400 mg/g", "result": "hydrate"}, {"measurement": "Polymorph", "setting": "[4]; PVPVA 25 wt.-%, no SLS, mAPI 125 mg/g", "result": "hydrate"}, {"measurement": "Polymorph", "setting": "[4]; PVPVA 25 wt.-%, no SLS, mAPI 250 mg/g", "result": "hydrate"}, {"measurement": "Polymorph", "setting": "[4]; Poloxamer 407 1 wt.-%, no SLS, mAPI 25 mg/g", "result": "bulk"}, {"measurement": "Polymorph", "setting": "[4]; Poloxamer 407 2.5 wt.-%, no SLS, mAPI 25 mg/g", "result": "bulk"}, {"measurement": "Polymorph", "setting": "[4]; Poloxamer 407 5 wt.-%, no SLS, mAPI 25 mg/g", "result": "bulk"}, {"measurement": "time from contacting until crystal formation is observed in XRD diffractograms", "setting": "[4]; suspension in 20 wt.-% aq. PVPVA, API:polymer ratio 1:1", "result": "> 9", "unit": "h"}]}]}
